Legend:
[1] = system: brain; conditions: at plasma concentration 150 µM; cited from earlier work
[2] = target: T1, Notum (Homo sapiens, UniProt Q6P988, C330S); assay: SPR equilibrium binding to biotinylated Notum on streptavidin chip; parameters: The human Notum enzyme core comprising amino acids S81–T451 with a C330S mutation; made in house; dialyzed conditioned medium used without purification; conditions: Fig 2a
T1 sequence (Q6P988 81-451 C330S): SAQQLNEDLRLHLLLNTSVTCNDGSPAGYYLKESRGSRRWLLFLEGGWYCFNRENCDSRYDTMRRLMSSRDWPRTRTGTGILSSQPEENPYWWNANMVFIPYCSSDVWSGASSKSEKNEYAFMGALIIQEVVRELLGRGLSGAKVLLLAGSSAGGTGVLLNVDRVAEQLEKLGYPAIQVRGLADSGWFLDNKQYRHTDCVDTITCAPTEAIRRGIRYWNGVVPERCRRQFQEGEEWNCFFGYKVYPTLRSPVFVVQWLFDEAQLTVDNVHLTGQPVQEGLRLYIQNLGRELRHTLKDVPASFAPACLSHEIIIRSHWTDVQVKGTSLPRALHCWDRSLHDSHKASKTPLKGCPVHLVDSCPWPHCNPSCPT

[3] = target: T1, Notum; assay: Thermal shift assay (SYPRO Orange) of Notum; conditions: for Thermoflour melting curve fluorescence of Notum: Fig 2c
Protocol: Reference wells, i.e. solutions without compounds were used to compare the melting temperature (Tm). The experiments were performed in triplicate.

[4] = system: Wnt3a-dependent TCF/LEF activation; assay: TOP-FLASH luciferase assay without the addition of Notum (control); type: cell-based; conditions: concentrations up to 1 mM, no Notum added
Protocol: . OPTS is a common lipase substrate with an octanoyl lipid linked to a fluorescent moiety. It is not a natural Notum substrate; however, it can be used to quantify the enzymatic activity of purified Notum protein[23],[25],[28]. […]. […]. […]. The stable HEK293 STF cell line[31] carrying the Super Top Flash firefly luciferase reporter was split into 96-well plates and transfected 24 h later with a constitutive Renilla luciferase plasmid (pRL-TK, Promega) at 20 ng DNA per well using Lipofectamine 2000 (Life Technologies, UK). The media were replaced with test media 16 h later. […] The firefly and Renilla luciferase activities were measured 24 h later with Dual-Glo luciferase reporter assay system (Promega, Madison, WI) using an Ascent Lunimoskan luminometer (Labsystems). The firefly luciferase activity was normalized to Renilla luciferase activity (relative light unit, RLU). Luciferase reporter assays were performed in triplicate.
Supplementary Figure 1. […].

In the case of `Cn1c(=O)c2c(ncn2C)n(C)c1=O` [caffeine, 1,3,7-trimethylxanthine], the “Adverse effects on the brain” value [1] is given as “does not appear to have adverse effects on the brain”, the “SPR Response” value ([2]; caffeine conc. 2.861e-8 (unit not given)) is given as 1.14 and the “SPR Response” value ([2]; caffeine conc. 5.722e-8 (unit not given)) is given as 2.29. The “SPR Response” value ([2]; caffeine conc. 1.144e-7 (unit not given)) was 3.61, the “SPR Response” value ([2]; caffeine conc. 2.289e-7 (unit not given)) was 4.16 and the “SPR Response” value ([2]; caffeine conc. 4.578e-7 (unit not given)) was 4.74. For the same molecule, the “SPR Response” value ([2]; caffeine conc. 9.155e-7 (unit not given)) was 5.58, the “SPR Response” value ([2]; caffeine conc. 1.831e-6 (unit not given)) was 6.88 and the “SPR Response” value ([2]; caffeine conc. 3.662e-6 (unit not given)) was 9.64. The “SPR Response” value ([2]; caffeine conc. 7.324e-6 (unit not given)) was 12.15, the “SPR Response” value ([2]; caffeine conc. 1.465e-5 (unit not given)) was 16.8 and the “SPR Response” value ([2]; caffeine conc. 2.93e-5 (unit not given)) was 23.59. For the same molecule, the “SPR Response” value ([2]; caffeine conc. 5.859e-5 (unit not given)) was 31.69, the “SPR Response” value ([2]; caffeine conc. 0.0001172 (unit not given)) was 41.28 and the “SPR Response” value ([2]; caffeine conc. 0.0002344 (unit not given)) was 50.77. For the same molecule, the “SPR Response” value ([2]; caffeine conc. 0.0004687 (unit not given)) was 61.29, the “SPR Response” value ([2]; caffeine conc. 0.0009375 (unit not given)) was 71.68 and the “SPR Response” value ([2]; caffeine conc. 0.001875 (unit not given)) was 81.69. For the same molecule, the “Melting temperature (Tm) of Notum” value [3] was 66.4 °C, the “Concentration from which the Tm of Notum starts to increase” value ([3]; 2-fold dilution series 1-1000 µM, dose-dependent) was 32 µM and the “Thermoflour melting curve fluorescence of Notum” value ([3]; compound 500 µM, Temperature 24.5) was 709.927. For the same molecule, the “Thermoflour melting curve fluorescence of Notum” value ([3]; compound 500 µM, Temperature 25.5) was 611.276, the “Thermoflour melting curve fluorescence of Notum” value ([3]; compound 500 µM, Temperature 26.5) was 506.395 and the “Thermoflour melting curve fluorescence of Notum” value ([3]; compound 500 µM, Temperature 27.5) was 407.771. For the same molecule, the “Thermoflour melting curve fluorescence of Notum” value ([3]; compound 500 µM, Temperature 28.5) was 329.046, the “Thermoflour melting curve fluorescence of Notum” value ([3]; compound 500 µM, Temperature 29.5) was 252.252 and the “Thermoflour melting curve fluorescence of Notum” value ([3]; compound 500 µM, Temperature 30.5) was 185.878. For the same molecule, the “Thermoflour melting curve fluorescence of Notum” value ([3]; compound 500 µM, Temperature 31.5) was 116.312, the “Thermoflour melting curve fluorescence of Notum” value ([3]; compound 500 µM, Temperature 32.5) was 36.8288 and the “Thermoflour melting curve fluorescence of Notum” value ([3]; compound 500 µM, Temperature 33.5) was -33.9223. The “Thermoflour melting curve fluorescence of Notum” value ([3]; compound 500 µM, Temperature 34.5) was -98.3184, the “Thermoflour melting curve fluorescence of Notum” value ([3]; compound 500 µM, Temperature 35.5) was -160.078 and the “Thermoflour melting curve fluorescence of Notum” value ([3]; compound 500 µM, Temperature 36.5) was -227.439. The “Thermoflour melting curve fluorescence of Notum” value ([3]; compound 500 µM, Temperature 37.5) was -299.113, the “Thermoflour melting curve fluorescence of Notum” value ([3]; compound 500 µM, Temperature 38.5) was -356.595 and the “Thermoflour melting curve fluorescence of Notum” value ([3]; compound 500 µM, Temperature 39.5) was -384.234. For the same molecule, the “Thermoflour melting curve fluorescence of Notum” value ([3]; compound 500 µM, Temperature 40.5) was -401.667, the “Thermoflour melting curve fluorescence of Notum” value ([3]; compound 500 µM, Temperature 41.5) was -422.587 and the “Thermoflour melting curve fluorescence of Notum” value ([3]; compound 500 µM, Temperature 42.5) was -436.447. The “Thermoflour melting curve fluorescence of Notum” value ([3]; compound 500 µM, Temperature 43.5) was -433.953, the “Thermoflour melting curve fluorescence of Notum” value ([3]; compound 500 µM, Temperature 44.5) was -407.23 and the “Thermoflour melting curve fluorescence of Notum” value ([3]; compound 500 µM, Temperature 45.5) was -370.506. The “Thermoflour melting curve fluorescence of Notum” value ([3]; compound 500 µM, Temperature 46.5) was -329.743, the “Thermoflour melting curve fluorescence of Notum” value ([3]; compound 500 µM, Temperature 47.5) was -279.561 and the “Thermoflour melting curve fluorescence of Notum” value ([3]; compound 500 µM, Temperature 48.5) was -224.386. For the same molecule, the “Thermoflour melting curve fluorescence of Notum” value ([3]; compound 500 µM, Temperature 49.5) was -154.955, the “Thermoflour melting curve fluorescence of Notum” value ([3]; compound 500 µM, Temperature 50.5) was -68.5872 and the “Thermoflour melting curve fluorescence of Notum” value ([3]; compound 500 µM, Temperature 51.5) was 21.0565. For the same molecule, the “Thermoflour melting curve fluorescence of Notum” value ([3]; compound 500 µM, Temperature 52.5) was 104.977, the “Thermoflour melting curve fluorescence of Notum” value ([3]; compound 500 µM, Temperature 53.5) was 203.138 and the “Thermoflour melting curve fluorescence of Notum” value ([3]; compound 500 µM, Temperature 54.5) was 335.417. For the same molecule, the “Thermoflour melting curve fluorescence of Notum” value ([3]; compound 500 µM, Temperature 55.5) was 489.845, the “Thermoflour melting curve fluorescence of Notum” value ([3]; compound 500 µM, Temperature 56.5) was 650.176 and the “Thermoflour melting curve fluorescence of Notum” value ([3]; compound 500 µM, Temperature 57.5) was 838.955. The “Thermoflour melting curve fluorescence of Notum” value ([3]; compound 500 µM, Temperature 58.5) was 1115.22, the “Thermoflour melting curve fluorescence of Notum” value ([3]; compound 500 µM, Temperature 59.5) was 1497.71 and the “Thermoflour melting curve fluorescence of Notum” value ([3]; compound 500 µM, Temperature 60.5) was 2046.51. The “Thermoflour melting curve fluorescence of Notum” value ([3]; compound 500 µM, Temperature 61.5) was 2842.67, the “Thermoflour melting curve fluorescence of Notum” value ([3]; compound 500 µM, Temperature 62.5) was 4016.35 and the “Thermoflour melting curve fluorescence of Notum” value ([3]; compound 500 µM, Temperature 63.5) was 5616.14. The “Thermoflour melting curve fluorescence of Notum” value ([3]; compound 500 µM, Temperature 64.5) was 7625.37, the “Thermoflour melting curve fluorescence of Notum” value ([3]; compound 500 µM, Temperature 65.5) was 9844.37 and the “Thermoflour melting curve fluorescence of Notum” value ([3]; compound 500 µM, Temperature 66.5) was 11980.7. For the same molecule, the “Thermoflour melting curve fluorescence of Notum” value ([3]; compound 500 µM, Temperature 67.5) was 13878, the “Thermoflour melting curve fluorescence of Notum” value ([3]; compound 500 µM, Temperature 68.5) was 15429.9 and the “Thermoflour melting curve fluorescence of Notum” value ([3]; compound 500 µM, Temperature 69.5) was 16655.6. For the same molecule, the “Thermoflour melting curve fluorescence of Notum” value ([3]; compound 500 µM, Temperature 70.5) was 17623.3, the “Thermoflour melting curve fluorescence of Notum” value ([3]; compound 500 µM, Temperature 71.5) was 18396.4 and the “Thermoflour melting curve fluorescence of Notum” value ([3]; compound 500 µM, Temperature 72.5) was 18998.9. The “Thermoflour melting curve fluorescence of Notum” value ([3]; compound 500 µM, Temperature 73.5) was 19494.1, the “Thermoflour melting curve fluorescence of Notum” value ([3]; compound 500 µM, Temperature 74.5) was 19890 and the “Thermoflour melting curve fluorescence of Notum” value ([3]; compound 500 µM, Temperature 75.5) was 20222.9. For the same molecule, the “Thermoflour melting curve fluorescence of Notum” value ([3]; compound 500 µM, Temperature 76.5) was 20511.4, the “Thermoflour melting curve fluorescence of Notum” value ([3]; compound 500 µM, Temperature 77.5) was 20720.5 and the “Thermoflour melting curve fluorescence of Notum” value ([3]; compound 500 µM, Temperature 78.5) was 20881. The “Thermoflour melting curve fluorescence of Notum” value ([3]; compound 500 µM, Temperature 79.5) was 21035.4, the “Thermoflour melting curve fluorescence of Notum” value ([3]; compound 500 µM, Temperature 80.5) was 21171.7 and the “Thermoflour melting curve fluorescence of Notum” value ([3]; compound 500 µM, Temperature 81.5) was 21266.6. The “Thermoflour melting curve fluorescence of Notum” value ([3]; compound 500 µM, Temperature 82.5) was 21332.1, the “Thermoflour melting curve fluorescence of Notum” value ([3]; compound 500 µM, Temperature 83.5) was 21375.7 and the “Thermoflour melting curve fluorescence of Notum” value ([3]; compound 500 µM, Temperature 84.5) was 21418.3. The “Thermoflour melting curve fluorescence of Notum” value ([3]; compound 500 µM, Temperature 85.5) was 21484.5, the “Thermoflour melting curve fluorescence of Notum” value ([3]; compound 500 µM, Temperature 86.5) was 21557.9 and the “Thermoflour melting curve fluorescence of Notum” value ([3]; compound 500 µM, Temperature 87.5) was 21630. For the same molecule, the “Thermoflour melting curve fluorescence of Notum” value ([3]; compound 500 µM, Temperature 88.5) was 21668.9, the “Thermoflour melting curve fluorescence of Notum” value ([3]; compound 500 µM, Temperature 89.5) was 21631 and the “Thermoflour melting curve fluorescence of Notum” value ([3]; compound 500 µM, Temperature 90.5) was 21594.2. The “Thermoflour melting curve fluorescence of Notum” value ([3]; compound 500 µM, Temperature 91.5) was 21585.2, the “Thermoflour melting curve fluorescence of Notum” value ([3]; compound 500 µM, Temperature 92.5) was 21573.1 and the “Thermoflour melting curve fluorescence of Notum” value ([3]; compound 500 µM, Temperature 93.5) was 21559.5. The “Thermoflour melting curve fluorescence of Notum” value ([3]; compound 500 µM, Temperature 94.5) was 21527.2, the “Thermoflour melting curve fluorescence of Notum” value ([3]; compound 500 µM, Temperature 95.5) was 21485.4 and the “Thermoflour melting curve fluorescence of Notum” value ([3]; compound 500 µM, Temperature 96.5) was 21486.2. For the same molecule, the “Thermoflour melting curve fluorescence of Notum” value ([3]; compound 500 µM, Temperature 97.5) was 21505.1, the “∆Tm of Notum” value ([3]; compound 500 µM, versus Notum without compounds) was 2.8 °C and the “Effect on Wnt3a-induced luciferase activity without Notum” value [4] was “did not affect luciferase activity”.

— publication PMC7544826 (Communications Biology, 2020)
